In US11767296B2, “Heteroaryl compounds as kinase inhibitor” (FUJIAN HAIXI PHARMACEUTICALS CO., LTD, priority 2018, dated 2023):
One block for each molecule: values may come before it.

Tests used:
CSF-1R = biological target: T1, CSF-1R (Homo sapiens, UniProt P07333); assay: CSF-1R kinase assay (HTRF kinEASE TK); type: biochemical; details: ATP 2.5 uM, enzyme 0.012 ng/ul, read-out: In vitro inhibitory activity of CSF-1R IC50
T1 construct: purchased Invitrogen PV3249
Procedure: Example 53: CSF-1R Kinase Assay
I. Materials and Instruments
• 2104 EnVision® Multilabel Reader (PerkinElmer) • OptiPlate-384, White Opaque 384-well MicroPlate (Cat.6007290, PerkinElmer) • HTRF kinEASE TK (Cat.62TKOPEC, Cisbio) • CSF-1R(Cat. PV3249, Invitrogen) • ATP 10 mM (Cat. PV3227, Invitrogen) • DTT 1 M (Cat. D5545, Sigma) • MgCl2 1 M (Cat. M8266, Sigma) • MnCl2 1 M (Cat.244589. Sigma)
II. Experimental Procedure
Substrate-TK and ATP were diluted to 5 times of the reaction concentration by 1×Kinase Buffer. CSF1R enzyme was diluted to 5×enzyme solution by 1×kinase buffer. Sa-XL665 was diluted to 4×Sa-XL665 solution by Detection Buffer. 100×TK-Ab-Cryptate Solution TK-Ab-Cryptate was diluted to 100×TK-Ab-Cryptate solution by Detection Buffer. 2. Experimental Procedure After all reagents had been prepared according to the above method, except enzymes, the sample was added after equilibrium to room temperature. • a. Firstly, 2.5% DMSO solution was prepared by using 1×kinase buffer (the high concentration of DMSO will affect the reaction and control the final concentration of DMSO to 1%). Then the compounds were diluted by 2.5% DMSO solution corresponding to the enzyme. The screening concentration of the compounds was 4 times gradient dilution from 1000 nM, and 8 concentrations. In addition to the control pore, 4 microlitres of diluted solution containing 2.5% DMSO were added to the reaction pore and 4 microlitres of previously prepared solution containing 2.5% DMSO were added to the control pore. • b. 2 microlitres of previously prepared TK-biotin substrate solution was added to all reaction pore (the amount of substrate used for enzyme screening is shown in Table 15). • c. Adding 2 microlitres of CSF1R enzyme solution of corresponding concentration (the amount of enzyme is shown in Table 15) to all reaction pore except negative pore. The negative pore is supplemented with 2 microlitres of enzyme corresponding to 1 xkinase buffer. After mixing, the compound and enzyme can be fully combined by incubating at room temperature for 10 minutes. • d. Enzyme reaction was initiated by adding 2 microlitres ATP solution of corresponding concentration to all reaction pore. The reaction time was 30 minutes (the corresponding ATP concentration and reaction time at enzyme screening were shown in Table 15). • e. Preparing the test solution 5 minutes before the end of kinase reaction. Streptavidin-XL665 and TK antibody europium cryptate (1:100) were prepared with detection buffer in the kit (the corresponding concentration of detection reagent for enzyme screening is shown in Table 15). • f. After the kinase reaction, 5 microlitres of diluted Streptavidin-XL665 were added to all reaction pore, mixing, and then the diluted TK antibody europium cryptate solution was added immediately. • g. After 1 hour reaction at room temperature, the fluorescence signals (320 nm stimulation, 665 nm, 615 nm emission) were detected by ENVISION (Perkinelmer) instrument. The inhibition rate of each pore was calculated by full active pore and background signal pore, and the average value of complex pore was obtained. Meanwhile, the half inhibitory activity (IC50) of each compound was fitted by professional drawing analysis software PRISM 5.0. The Flow Chart of the Experiment is as Follows:
3. Data Analysis Emission Ratio (ER)=665 nm Emission signal/615 nm Emission signal Inhibitory rate=(ERpositive−ERsample)/(ERpositive−ERnegative)*100% Using Graphpad Prism 5 and log (inhibitor) vs. normalized response to fit IC50 curve and calculate IC50 value. The IC50 data of the compounds prepared in Representative Examples 3-52 are as follows (Table 18): […]

NFS-60 cells = assay: NFS-60 cell assay (CCK proliferation, M-CSF stimulated); type: cell-based; details: Mus musculus, compound 0.5 uM, 72 h, 40 ng/mL M-CSF, read-out: inhibition ratio % (NFS-60 cell proliferation)
Procedure: Example 54: NFS-60 Cell Assay
1. Experimental Materials
Mouse Myelogenous Leukemia Cells (NFS-60)
Using DMSO to dissolve, and the required concentration was prepared with full culture medium without factors.
Penicillin-streptomycin: TRANS
Mouse M-CSF/CSF-1 Protein: Sino Biological Inc, No. 51112-MNAH
M-CSF: Qilu Pharmaceutical co., Ltd.
The logarithmic growth phase of NFS-60 cells (1640+10% FBS+40 ng/ml M-CSF+1% Penicillin-streptomycin) were centrifuged (1000 r/min) and cultured in a factor-free medium at 37° C., 5% CO2 for 24 hours. Centrifugating (1000 r/min), the culture medium was replaced by new culture medium including 40 ng/mL factors, and inoculated on 96-well plate by 2*10^4 cells/mL, 100 μL/hole. After 16 hours, the tested compounds were added 10 μL/hole, 3 duplicate holes per compound, 37° C., 5% CO2, continue to cultured for 72 h. Then 10 μL CCK reagent was added to each hole. After incubation for 4 hours, the absorbance of each hole was measured at 450 nm wavelength. According to Formula: Inhibitory rate (%)=(1-OD value of test pore/OD value of solvent control pore)×100% 3. Experimental Results The experimental results of the inhibition of NFS-60 cell proliferation by the compounds prepared in Example 3-52, 0.5 uM, are shown in the following table: […]

[1] = tested on: MC-38 transplanted tumors; assay: Animal pharmacodynamics experiment: MC-38 transplanted tumors in C57 mice; type: in vivo; details: 2 weeks; for inhibition in vivo at 30 mg/kg: Mus musculus, MC-38, po, 336 h, compound alone, 30 mg/kg intragastrically daily, read-out: inhibition ratio (tumor size, MC-38 transplanted tumors); for inhibition ratio (tumor size, MC-38 transplanted tumors): compound 30 mg/kg intragastrically daily + anti-PD1 10 mg/kg i.p. once every 3 days
Procedure: Example 55: Animal Pharmacodynamics Experiment
In this study. MC-38 cell lines were inoculated in C57 mice
Experimental animal: C57 mice, male, 5-6 weeks old (18-22 g)
Inoculation: 2×10^6/0.1 mL, Matrigel is added in 3:1 ratio
PD1: InVivoMAb anti-mouse PD-1 (CD279). BioXCell
Group: On day 4 after inoculating, all the mice were divided into 13 groups, respectively model group, the anti-PD1 2 mg/kg group, anti-PD110 mg/kg group, testing compounds alone, and the tested compound combine with anti-PD1 10 mg/kg. Compounds were intragastrically administered daily at a dose of 30 mg/kg and anti-PD1 was intraperitoneally injected once every 3 days. The drug was administered continuously for 2 weeks. In model group, 80% glycerol+20% CMC-Na was given daily.
Results: The experimental results of anti-PD1 combined with the compounds prepared in the representative example 3-52 on the inhibition of tumor size of MC-38 transplanted tumors are as follows: […]

T1 sequence (P07333 20-972): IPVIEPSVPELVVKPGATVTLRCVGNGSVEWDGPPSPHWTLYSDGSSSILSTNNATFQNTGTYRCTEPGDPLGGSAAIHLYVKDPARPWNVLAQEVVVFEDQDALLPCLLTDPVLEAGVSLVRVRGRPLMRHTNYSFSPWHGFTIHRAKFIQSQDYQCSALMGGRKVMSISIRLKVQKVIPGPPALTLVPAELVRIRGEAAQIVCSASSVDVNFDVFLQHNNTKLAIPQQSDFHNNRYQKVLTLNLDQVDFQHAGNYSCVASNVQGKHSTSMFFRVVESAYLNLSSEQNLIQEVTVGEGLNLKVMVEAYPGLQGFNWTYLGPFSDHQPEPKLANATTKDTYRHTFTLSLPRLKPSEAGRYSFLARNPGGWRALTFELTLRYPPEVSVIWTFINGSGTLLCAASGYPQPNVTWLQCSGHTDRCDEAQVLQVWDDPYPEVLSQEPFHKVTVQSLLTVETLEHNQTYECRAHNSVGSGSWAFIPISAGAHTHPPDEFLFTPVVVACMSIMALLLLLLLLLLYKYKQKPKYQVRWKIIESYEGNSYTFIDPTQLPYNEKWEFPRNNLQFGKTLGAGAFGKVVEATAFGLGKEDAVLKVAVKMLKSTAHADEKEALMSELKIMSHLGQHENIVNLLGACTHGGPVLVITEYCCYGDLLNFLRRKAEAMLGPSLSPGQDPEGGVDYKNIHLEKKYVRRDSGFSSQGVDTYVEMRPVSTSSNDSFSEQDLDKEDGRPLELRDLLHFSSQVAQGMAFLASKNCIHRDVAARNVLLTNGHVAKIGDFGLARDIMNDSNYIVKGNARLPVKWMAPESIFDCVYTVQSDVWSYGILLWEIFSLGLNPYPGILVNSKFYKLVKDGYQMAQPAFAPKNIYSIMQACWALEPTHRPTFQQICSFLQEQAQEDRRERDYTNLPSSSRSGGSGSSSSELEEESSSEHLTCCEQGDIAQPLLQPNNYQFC

SMILES: CSc1cc(C(=O)Nc2cccc([C@@H](C)Oc3cc(-c4cnn(C)c4)cnc3N)c2)ccc1C [Compound 182, (R)-N-(3-(1-((2-amino-5-(1-methyl-1H-pyrazol-4-yl)pyridin-3-yl)oxy)ethyl)phenyl)-4-methyl-3-(methylthio)benzamide]
- IC50 (CSF-1R): ≤ 50 nM
- inhibition at 0.5 µM (NFS-60 cells): ≥ 50%
- inhibition in vivo at 30 mg/kg [1]: 10 to 30%
- inhibition ratio (tumor size, MC-38 transplanted tumors) [1]: +++ (+++: ≥30%)

SMILES: C[C@@H](Oc1cc(-c2cnn(C)c2)cnc1N)c1cccc(NC(=O)c2cccc(N(C)C)c2)c1 [Compound 178, (R)-N-(3-(1-((2-amino-5-(1-methyl-1H-pyrazol-4-yl)pyridin-3-yl)oxy)ethyl)phenyl)-3-(dimethylamino)benzamide]
- IC50 (CSF-1R): ≤ 50 nM
- inhibition at 0.5 µM (NFS-60 cells): ≥ 50%
- inhibition in vivo at 30 mg/kg [1]: 10 to 30%
- inhibition ratio (tumor size, MC-38 transplanted tumors) [1]: +++ (+++: ≥30%)

SMILES: Cc1cccc(C(=O)Nc2cccc([C@@H](C)Oc3cc(Cl)cnc3N)c2)c1Cl [Compound 85, (R)-N-(3-(1-((2-amino-5-chloropyridin-3-yl)oxy)ethyl)-phenyl)-2-chloro-3-methylbenzamide]
- IC50 (CSF-1R): ≤ 50 nM
- inhibition in vivo at 30 mg/kg [1]: < 10%
- inhibition ratio (tumor size, MC-38 transplanted tumors) [1]: +++ (+++: ≥30%)

SMILES: Cc1cccc(C(=O)Nc2cccc([C@@H](C)Oc3cc(Cl)cnc3N)c2)c1 [Compound 72, (R)-N-(3-(1-((2-amino-5-chloropyridin-3-yl)oxy)ethyl)-phenyl)-3-methylbenzamide]
- IC50 (CSF-1R): ≤ 50 nM
- inhibition at 0.5 µM (NFS-60 cells): ≥ 50%
- inhibition in vivo at 30 mg/kg [1]: < 10%
- inhibition ratio (tumor size, MC-38 transplanted tumors) [1]: ++ (++: 10%-30%)

The next lines start with results.

- IC50 (CSF-1R): ≤ 50 nM
SMILES: Cc1ccc(C(=O)Nc2cccc([C@@H](C)Oc3cc(-c4cnn(C)c4)cnc3N)c2)cc1N(C)C [Compound 179, (R)-N-(3-(1-((2-amino-5-(1-methyl-1H-pyrazol-4-yl)pyridin-3-yl)oxy)ethyl)phenyl)-3-(dimethylamino)-4-methylbenzamide]
- inhibition at 0.5 µM (NFS-60 cells): ≥ 50%
- inhibition in vivo at 30 mg/kg [1]: 10 to 30%
- inhibition ratio (tumor size, MC-38 transplanted tumors) [1]: +++ (+++: ≥30%)

- IC50 (CSF-1R): ≤ 50 nM
SMILES: C[C@@H](Oc1cc(Cl)cnc1N)c1cccc(NC(=O)c2cccc(S(C)(=O)=O)c2)c1 [Compound 78, (R)-N-(3-(1-((2-amino-5-chloropyridin-3-yl)oxy)ethyl)-phenyl)-3-(methylsulfonyl)-benzamide]
- inhibition in vivo at 30 mg/kg [1]: < 10%
- inhibition ratio (tumor size, MC-38 transplanted tumors) [1]: ++ (++: 10%-30%)
